Measurements taken from the supplement of paper PMC11061612.

Tests used:
[1] = compound: CC1=CN2[C@@H](C1)C=NC3=CC(=C(C=C3C2=O)OC)OCCCCCOC4=C(C=C5C(=C4)N=C[C@@H]6CC(=CN6C5=O)C)OC [SG3199]; conditions: max 0.001 µM
Procedure, shortened: (§1)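 Following 24 hours at 37°C and 5% CO2, cancer cell lines in 1536-well plates with 7.5 μl DMEM/F12 or RPMI and 10% FBS were dosed for 72 hours, final DMSO typically being 0.2%. CellTiter-Glo 2.0 luminescence, scaled between blank-well and DMSO-well means, gave the viability readout. Dose responses were fitted to a two-parameter logistic curve with a non-linear mixed effects model, and the single-agent IC50 was derived from this fit.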

[2] = compound: CC(C)n1c(=O)n(C)c2cnc3cc(F)c(-c4ccc(OCCCN5CCCCC5)nc4)cc3c21 [AZD1390]; conditions: max 0.3 µM
Procedure, shortened: as §1

[3] = compound: COc1cccc2c1C(=O)c1c(O)c3c(c(O)c1C2=O)C[C@@](O)(C(=O)CO)C[C@@H]3O[C@H]1C[C@H](N)[C@H](O)[C@H](C)O1 [Doxorubicin]; conditions: max 1 µM
Procedure, shortened: as §1

[4] = compound: Cc1cc2ncnn2cc1Nc1ncc2c(n1)n(C1CCOCC1)c(=O)n2C [AZD7648]; conditions: max 10 µM
Procedure, shortened: as §1

[5] = compound: CC1=C(C(=CC=C1)Cl)NC(=O)C2=CN=C(S2)NC3=CC(=NC(=N3)C)N4CCN(CC4)CCO [Dasatinib]; conditions: max 2 µM
Procedure, shortened: as §1

[6] = compound: O=C(c1cc(Cc2n[nH]c(=O)c3ccccc23)ccc1F)N1CCN(C(=O)C2CC2)CC1 [Olaparib]; conditions: max 10 µM
Procedure, shortened: as §1

[7] = compound: Cc1c2c(nn1C)CSCc1cc(n(C)n1)CSc1cc(c3ccccc3c1)OCCCc1c(C(=O)O)n(C)c3c-2c(Cl)ccc13 [AZD5991]; conditions: max 1 µM
Procedure, shortened: as §1

[8] = compound: CN(C)CCCOc1ccc(-c2ccc3ncc4c(c3c2)n(C2CCOCC2)c(=O)n4C)cn1 [AZD0156]; conditions: max 3 µM
Procedure, shortened: as §1

[9] = compound: C=CCn1c(=O)c2cnc(Nc3ccc(N4CCN(C)CC4)cc3)nc2n1-c1cccc(C(C)(C)O)n1 [AZD1775]; conditions: max 3 µM
Procedure, shortened: as §1

[10] = compound: COc1cc(Nc2ncc3c(n2)-c2ccc(Cl)cc2C(c2c(F)cccc2OC)=NC3)ccc1C(=O)O [Alisertib]; conditions: max 10 µM
Procedure, shortened: as §1

[11] = compound: COc1cc2ncnc(Nc3ccc(F)c(Cl)c3)c2cc1OCCCN1CCOCC1 [Gefitinib]; conditions: max 10 µM
Procedure, shortened: as §1

[12] = compound: C[C@@H](Oc1cc(-c2cnn(C3CCNCC3)c2)cnc1N)c1c(Cl)ccc(F)c1Cl [Crizotinib]; conditions: max 10 µM
Procedure, shortened: as §1

[13] = compound: CCc1c2c(nc3ccc(O)cc13)-c1cc3c(c(=O)n1C2)COC(=O)[C@]3(O)CC [SN-38]; conditions: max 0.3 µM
Procedure, shortened: as §1

[14] = compound: C[C@@H]1COCCN1C2=NC(=NC(=C2)C3(CC3)[S@](=N)(=O)C)C4=C5C=CNC5=NC=C4 [AZD6738]; conditions: max 10 µM
Procedure, shortened: as §1

[15] = compound: CS(=O)(=O)CCNCc1ccc(-c2ccc3ncnc(Nc4ccc(OCc5cccc(F)c5)c(Cl)c4)c3c2)o1 [Lapatinib]; conditions: max 10 µM
Procedure, shortened: as §1

[16] = compound: Cn1cnc2c(F)c(Nc3ccc(Br)cc3Cl)c(C(=O)NOCCO)cc21 [Selumetinib]; conditions: max 10 µM
Procedure, shortened: as §1

[17] = compound: COc1cccc(OCCCN)c1-c1cc(Nc2cnc(C#N)cn2)n[nH]1 [Prexasertib]; conditions: max 1 µM
Procedure, shortened: as §1

[18] = compound: CN(CC[C@H](CSC1=CC=CC=C1)NC2=C(C=C(C=C2)S(=O)(=O)NC(=O)C3=CC=C(C=C3)N4CCC(CC4)[C@H](C5=CC=CC=C5C6=CC=C(C=C6)Cl)O)S(=O)(=O)C(F)(F)F)CCO [AZD4320]; conditions: max 1 µM
Procedure, shortened: as §1

[19] = compound: C[C@@H](c1ccc2nccn2c1)n1nnc2ncc(-c3cnn(C)c3)nc21 [Savolitinib]; conditions: max 1 µM
Procedure, shortened: as §1

[20] = compound: CCN(CCO)CCCOc1ccc2c(Nc3cc(CC(=O)Nc4cccc(F)c4)[nH]n3)ncnc2c1 [AZD2811]; conditions: max 1 µM
Procedure, shortened: as §1

[21] = compound: C1CN(CCC1(C(=O)N[C@@H](CCO)C2=CC=C(C=C2)Cl)N)C3=NC=NC4=C3C=CN4 [Capivasertib]; conditions: max 10 µM
Procedure, shortened: as §1

[22] = compound: CC1(C)CCC(CN2CCN(c3ccc(C(=O)NS(=O)(=O)c4ccc(NCC5CCOCC5)c([N+](=O)[O-])c4)c(Oc4cnc5[nH]ccc5c4)c3)CC2)=C(c2ccc(Cl)cc2)C1 [Venetoclax]; conditions: max 1 µM
Procedure, shortened: as §1

[23] = compound: CC(=O)c1c(C)c2cnc(Nc3ccc(N4CCNCC4)cn3)nc2n(C2CCCC2)c1=O [Palbociclib]; conditions: max 10 µM
Procedure, shortened: as §1

[24] = compound: Cc1nc(-c2cn3c(n2)-c2ccc(-c4cnn(C(C)(C)C(N)=O)c4)cc2OCC3)n(C(C)C)n1 [Taselisib]; conditions: max 10 µM
Procedure, shortened: as §1

[25] = compound: CC(=O)Nc1cccc(-n2c(=O)n(C3CC3)c(=O)c3c(Nc4ccc(I)cc4F)n(C)c(=O)c(C)c32)c1 [Trametinib]; conditions: max 1 µM
Procedure, shortened: as §1

[26] = compound: COc1nnc2ccc(N3CCC(c4ccc(OCCN5CCN(C)C(=O)[C@H]5C)cc4)CC3)nn12 [AZD5153]; conditions: max 1 µM
Procedure, shortened: as §1

[27] = compound: C[C@@H](Nc1cc(F)cc(F)c1)c1cc(C(=O)N(C)C)cc2c(=O)cc(N3CCOCC3)oc12 [AZD8186]; conditions: max 3 µM
Procedure, shortened: as §1

EPLC-272H (Other Solid Carcinomas)
IC50, cell viability 72 h [1]: > 1 nM
IC50, cell viability 72 h [2]: > 300 nM
IC50, cell viability 72 h [3]: > 1000 nM
IC50, cell viability 72 h [4]: > 10000 nM
IC50, cell viability 72 h [5]: 148 nM
IC50, cell viability 72 h [6]: > 10000 nM
IC50, cell viability 72 h [7]: 391 nM
IC50, cell viability 72 h [8]: > 3000 nM
IC50, cell viability 72 h [9]: 454 nM
IC50, cell viability 72 h [10]: > 10000 nM
IC50, cell viability 72 h [11]: 5460 nM
IC50, cell viability 72 h [12]: > 10000 nM
IC50, cell viability 72 h [13]: 126 nM
IC50, cell viability 72 h [14]: 1000 nM
IC50, cell viability 72 h [15]: 5770 nM
IC50, cell viability 72 h [16]: 2280 nM
IC50, cell viability 72 h [17]: 8.51 nM
IC50, cell viability 72 h [18]: > 1000 nM
IC50, cell viability 72 h [19]: > 1000 nM
IC50, cell viability 72 h [20]: > 1000 nM
IC50, cell viability 72 h [21]: 1800 nM
IC50, cell viability 72 h [22]: > 1000 nM
IC50, cell viability 72 h [23]: > 10000 nM
IC50, cell viability 72 h [24]: 256 nM
IC50, cell viability 72 h [25]: 22.7 nM
IC50, cell viability 72 h [26]: 116 nM
IC50, cell viability 72 h [27]: > 3000 nM

ESO26 (Esophageal Adenocarcinoma)
IC50, cell viability 72 h [1]: > 1 nM
IC50, cell viability 72 h [2]: > 300 nM
IC50, cell viability 72 h [3]: > 1000 nM
IC50, cell viability 72 h [4]: > 10000 nM
IC50, cell viability 72 h [5]: > 2000 nM
IC50, cell viability 72 h [6]: > 10000 nM
IC50, cell viability 72 h [7]: > 1000 nM
IC50, cell viability 72 h [8]: > 3000 nM
IC50, cell viability 72 h [9]: 1470 nM
IC50, cell viability 72 h [10]: > 10000 nM
IC50, cell viability 72 h [11]: 4700 nM
IC50, cell viability 72 h [12]: > 10000 nM
IC50, cell viability 72 h [13]: 223 nM
IC50, cell viability 72 h [14]: > 10000 nM
IC50, cell viability 72 h [15]: 814 nM
IC50, cell viability 72 h [16]: > 10000 nM
IC50, cell viability 72 h [17]: 380 nM
IC50, cell viability 72 h [18]: > 1000 nM
IC50, cell viability 72 h [19]: > 1000 nM
IC50, cell viability 72 h [20]: > 1000 nM
IC50, cell viability 72 h [21]: 8590 nM
IC50, cell viability 72 h [22]: > 1000 nM
IC50, cell viability 72 h [23]: > 10000 nM
IC50, cell viability 72 h [24]: 1840 nM
IC50, cell viability 72 h [25]: > 1000 nM
IC50, cell viability 72 h [26]: 398 nM
IC50, cell viability 72 h [27]: > 3000 nM

EW-16 (Ewing's Sarcoma)
IC50, cell viability 72 h [1]: > 1 nM
IC50, cell viability 72 h [2]: > 300 nM
IC50, cell viability 72 h [3]: 71.9 nM
IC50, cell viability 72 h [4]: > 10000 nM
IC50, cell viability 72 h [5]: > 2000 nM
IC50, cell viability 72 h [6]: > 10000 nM
IC50, cell viability 72 h [7]: > 1000 nM
IC50, cell viability 72 h [8]: > 3000 nM
IC50, cell viability 72 h [9]: 581 nM
IC50, cell viability 72 h [10]: 2280 nM
IC50, cell viability 72 h [11]: > 10000 nM
IC50, cell viability 72 h [12]: > 10000 nM
IC50, cell viability 72 h [13]: 3.19 nM
IC50, cell viability 72 h [14]: > 10000 nM
IC50, cell viability 72 h [15]: > 10000 nM
IC50, cell viability 72 h [16]: > 10000 nM
IC50, cell viability 72 h [17]: 726 nM
IC50, cell viability 72 h [18]: > 1000 nM
IC50, cell viability 72 h [19]: > 1000 nM
IC50, cell viability 72 h [20]: 837 nM
IC50, cell viability 72 h [21]: > 10000 nM
IC50, cell viability 72 h [22]: > 1000 nM
IC50, cell viability 72 h [23]: > 10000 nM
IC50, cell viability 72 h [24]: 5720 nM
IC50, cell viability 72 h [25]: > 1000 nM
IC50, cell viability 72 h [26]: > 1000 nM
IC50, cell viability 72 h [27]: > 3000 nM

G-402 (Other Solid Carcinomas)
IC50, cell viability 72 h [1]: > 1 nM
IC50, cell viability 72 h [2]: > 300 nM
IC50, cell viability 72 h [3]: 123 nM
IC50, cell viability 72 h [4]: > 10000 nM
IC50, cell viability 72 h [5]: 319 nM
IC50, cell viability 72 h [6]: > 10000 nM
IC50, cell viability 72 h [7]: 251 nM
IC50, cell viability 72 h [8]: > 3000 nM
IC50, cell viability 72 h [9]: 2700 nM
IC50, cell viability 72 h [10]: 1970 nM
IC50, cell viability 72 h [11]: > 10000 nM
IC50, cell viability 72 h [12]: 7960 nM
IC50, cell viability 72 h [13]: 27 nM
IC50, cell viability 72 h [14]: 7010 nM
IC50, cell viability 72 h [15]: > 10000 nM
IC50, cell viability 72 h [16]: > 10000 nM
IC50, cell viability 72 h [17]: 523 nM
IC50, cell viability 72 h [18]: > 1000 nM
IC50, cell viability 72 h [19]: > 1000 nM
IC50, cell viability 72 h [20]: 475 nM
IC50, cell viability 72 h [21]: 8690 nM
IC50, cell viability 72 h [22]: > 1000 nM
IC50, cell viability 72 h [23]: > 10000 nM
IC50, cell viability 72 h [24]: 2420 nM
IC50, cell viability 72 h [25]: 563 nM
IC50, cell viability 72 h [26]: 98.5 nM
IC50, cell viability 72 h [27]: > 3000 nM
